Data: patent publication US10941157B2, “Pesticidal compositions and uses thereof” (Gilead Apollo, LLC, priority 2015, dated 2021)
≈ marks a conversion by molar mass, not a printed value. Read-outs that look alike come from different tables or passages of the source.

Experiments:
Botrtyis cinerea (Bc) = assay: In vitro pathogen growth inhibition assay, Bc; assay type: cell-based; conditions: 48 h
Method in brief: (§1)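 Spores in 17% V8 liquid medium, or 1.5 mm Rs mycelial plugs in ¼ PDB, incubated with compound; final concentration checked by OD600 for precipitation. OD readings at 24 and 48 h, blank-subtracted, plus visual ratings; value is concentration giving ≥90% growth inhibition.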

Sphaerotheca fuliginea = assay: Foliar protection for cucumber powdery mildew control; assay type: in vivo; conditions: foliar spray on Cucumis sativus cv. Straight Eight, inoculated 24 hours after treatment, evaluated 7 days later
Description: Plants (Cucumis sativus cv. Straight Eight) were grown for 10 days in 2.5-inch square pots containing Metromix 200 medium amended with fertilizer. For propagation, plants were maintained in a growth chamber at conditions of 23 to 27° C., 16 hour light cycle, ambient humidity, and with sub-irrigation as needed. After inoculation with the pathogen of Sphaerotheca fuliginea, plants were kept at conditions of 23 to 27° C., 16 hour light cycle, 60% relative humidity, and with sub-irrigation as needed to facilitate infection and disease development. […] An atomizer was used for applying the solution onto both sides of the leaves until thoroughly wetted. […] At 24 hours after treatment, the plants were moved to a cooler chamber and inoculated by shaking well-colonized, untreated stock plants above the treated plants. This allowed producing a settling cloud of spores and resulting in uniform infection. Inoculated plants were kept near other sporulating stock plants to allow for infection of newly emerging leaves. Efficacy was evaluated in 7 days later by examining leaves for colonization and growth of mildew. Table 5 lists the results of cucumber powdery mildew control at a compound concentration of 10 ppm or lower.

Rhizoctonia solani (Rs) = assay: In vitro pathogen growth inhibition assay, Rs (mycelial plugs); assay type: cell-based; conditions: Rhizoctonia solani, 48 h, mycelial plugs
Method in brief: (§2)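 Spores of Dm, Fv and Pc were diluted in 17% V8 liquid medium; Rs used 1.5 mm mycelial plugs in ¼ PDB. Compounds from 2.5 mg/ml DMSO stocks were combined with inoculum, growth was read by OD600 at 24 and 48 h with blank subtraction, and the reported value is the concentration giving ≥90% inhibition.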

[1] = system: Fusarium moniliforme (Fm); assay: In vitro pathogen growth inhibition assay, Fm; assay type: cell-based; conditions: Fusarium verticillioides
Method in brief: as §1

[2] = system: Collectotrichum graminicola (Cg); assay: In vitro pathogen growth inhibition assay, Cg; assay type: cell-based; conditions: 48 h
Method in brief: as §1

Septoria tritici (St) = assay: In vitro pathogen growth inhibition assay, St; assay type: cell-based; conditions: Zymoseptoria tritici, 48 h
Method in brief: as §1

[3] = system: Mycosphaerella graminicola (synthetic Septoria tritici); assay: Foliar protection test for wheat septoria leaf blotch control; assay type: in vivo; conditions: foliar spray on Triticum aestivum cv. WinterHawk, inoculated 1 hour after treatment, evaluated 16 days later
[4] = system: Fusarium virguliforme (Fv); assay: In vitro pathogen growth inhibition assay, Fv; assay type: cell-based
Method in brief: as §2

Diplodia maydis (Dm) = assay: In vitro pathogen growth inhibition assay, Dm; assay type: cell-based; conditions: Stenocarpella maydis, 48 h
Method in brief: as §2

Puccinia triticina = assay: Foliar protection test for wheat leaf rust control; assay type: in vivo; conditions: foliar application to wheat (Triticum aestivum cv. Winterhawk), evaluated 10 days later
Phakopsora pachyrhizi = assay: Foliar protection test for Asian soybean rust control; assay type: in vivo; conditions: foliar application to soybean (Glycine max AG4832), percent disease area evaluated 14 days later
[5] = system: Blumeria graminis f. sp. hordei; assay: Foliar protection test for barley powdery mildew control; assay type: in vivo; conditions: foliar spray on Hordeum vulgare cv. Perry, inoculated 24 hours after treatment, evaluated 7 days later
Description: Plants (Hordeum vulgare cv. Perry) were grown for 6 days in 2-inch square pots containing Metromix 200 medium amended with fertilizer. […] After inoculation with the pathogen of Blumeria graminis f. sp. hordei, plants were kept at conditions of 20 to 22° C., 70% relative humidity, and 200 uM of light to facilitate infection and disease development. […] An atomizer was used for applying the solution onto both sides of the leaves until thoroughly wetted. […] At 24 hours after treatment, the plants were moved to a cooler chamber and inoculated by shaking well-colonized, untreated stock plants above the treated plants. This allowed producing a settling cloud of spores and resulting in uniform infection. Efficacy was evaluated in 7 days later by examining leaves for colonization and growth of mildew. Table 4 lists the results of barley powdery mildew control at a compound concentration of 10 ppm or lower.

[6] = system: Phytophthora capsici (Pc); assay: In vitro pathogen growth inhibition assay, Pc; assay type: cell-based; conditions: 48 h
Method in brief: as §2

Fusarium graminearum = assay type: in vivo; conditions: spray on flowering Triticum aestivum cv. Samson, inoculated 24 hours after treatment, evaluated 14 days later
[7] = ≥90% growth inhibition, 48 hours, vs 2% DMSO control, read-out: Compound Concentration (ppm) sufficient for ≥90% inhibition of Bc
[8] = ≥90% growth inhibition, 48 hours, vs 2% DMSO control, read-out: Compound Concentration (ppm) sufficient for ≥90% inhibition of Rs
[9] = ≥90% growth inhibition, 48 hours, vs 2% DMSO control, read-out: Compound Concentration (ppm) sufficient for ≥90% inhibition of Fm
[10] = ≥90% growth inhibition, 48 hours, vs 2% DMSO control, read-out: Compound Concentration (ppm) sufficient for ≥90% inhibition of Cg
[11] = ≥90% growth inhibition, 48 hours, vs 2% DMSO control, read-out: Compound Concentration (ppm) sufficient for ≥90% inhibition of St
[12] = ≥90% growth inhibition, 48 hours, vs 2% DMSO control, read-out: Compound Concentration (ppm) sufficient for ≥90% inhibition of Fv
[13] = ≥90% growth inhibition, 48 hours, vs 2% DMSO control, read-out: Compound Concentration (ppm) sufficient for ≥90% inhibition of Dm
[14] = ≥90% growth inhibition, 48 hours, vs 2% DMSO control, read-out: Compound Concentration (ppm) sufficient for ≥90% inhibition of Pc

COc1ccc(F)cc1[C@H](Cn1c(=O)n([C@H](C)C(=O)N2CCCC2)c(=O)c2c(C)c(-n3nccn3)sc21)OCCC#N [Compound I-202, 3-((R)-1-(5-fluoro-2-methoxyphenyl)-2-(5-methyl-2,4-dioxo-3-((R)-1-oxo-1-(pyrrolidin-1-yl)propan-2-yl)-6-(2H-1,2,3-triazol-2-yl)-3,4-dihydrothieno[2,3-d]pyrimidin-1(2H)-yl)ethoxy)propanenitrile]
IC90 (Botrtyis cinerea (Bc); [7]): ≥ 0.4 mg/L
Cucumber Powdery Mildew Control at a compound concentration of 10 ppm or lower (Sphaerotheca fuliginea): AA (≥85% control of cucumber powdery mildew)
IC90 (Rhizoctonia solani (Rs); [8]): 0.4 mg/L (≈ 0.672 µM)
IC90 [1, 9]: 0.08 mg/L (≈ 0.134 µM)
IC90 [2, 10]: 2 mg/L (≈ 3.36 µM)
IC90 (Septoria tritici (St); [11]): > 50 mg/L
Septoria Leaf Blotch Control at a compound concentration of 25 ppm or lower [3]: D (<25% control of wheat septoria leaf blotch)
IC90 [4, 12]: 0.4 mg/L (≈ 0.672 µM)
IC90 (Diplodia maydis (Dm); [13]): 2 mg/L (≈ 3.36 µM)
Wheat Leaf Rust Control at a compound concentration of 10 ppm or lower (Puccinia triticina): A (from 70% to 84% control of wheat leaf rust)
Asian Soybean Rust Control at a compound concentration of 25 ppm or lower (Phakopsora pachyrhizi): A (from 70% to 84% control of Asian soybean rust)
Barley Powdery Mildew Control at a compound concentration of 10 ppm or lower [5]: A (from 70% to 84% control of barley powdery mildew)
IC90 [6, 14]: ≥ 50 mg/L
Wheat Fusarium Head Blight Control at a compound concentration of 25 ppm or lower (Fusarium graminearum): D (<25% control of wheat fusarium head blight)

COc1ccc(F)cc1[C@H](Cn1c(=O)n([C@H](C)C(=O)N(C)C(C)C)c(=O)c2c(C)c(-n3nccn3)sc21)OCCO [Compound I-090, (R)-2-(1-((R)-2-(5-fluoro-2-methoxyphenyl)-2-(2-hydroxyethoxy)ethyl)-5-methyl-2,4-dioxo-6-(2H-1,2,3-triazol-2-yl)-1,4-dihydrothieno[2,3-d]pyrimidin-3 (2H)-yl)-N-isopropyl-N-methylpropanamide]
IC90 (Botrtyis cinerea (Bc); ≥90% inhibition, 48 hours vs 2% DMSO control, read-out: Compound Concentration (ppm) sufficient for ≥90% inhibition of growth, Bc): 2 mg/L (≈ 3.4 µM)
Cucumber Powdery Mildew Control at a compound concentration of 10 ppm or lower (Sphaerotheca fuliginea): A (from 70% to 84% control of cucumber powdery mildew)
IC90 (Rhizoctonia solani (Rs); ≥90% inhibition, 48 hours vs 2% DMSO control, read-out: Compound Concentration (ppm) sufficient for ≥90% inhibition of growth, Rs): 0.08 mg/L (≈ 0.136 µM)
IC90 ([1]; ≥90% inhibition, 48 hours vs 2% DMSO control, read-out: Compound Concentration (ppm) sufficient for ≥90% inhibition of growth, Fm): 0.08 mg/L (≈ 0.136 µM)
IC90 ([2]; ≥90% inhibition, 48 hours vs 2% DMSO control, read-out: Compound Concentration (ppm) sufficient for ≥90% inhibition of growth, Cg): 0.08 mg/L (≈ 0.136 µM)
IC90 (Septoria tritici (St); ≥90% inhibition, 48 hours vs 2% DMSO control, read-out: Compound Concentration (ppm) sufficient for ≥90% inhibition of growth, St): ≥ 2 mg/L
Septoria Leaf Blotch Control at a compound concentration of 25 ppm or lower [3]: A (from 70% to 84% control of wheat septoria leaf blotch)
IC90 ([4]; ≥90% inhibition, 48 hours vs 2% DMSO control, read-out: Compound Concentration (ppm) sufficient for ≥90% inhibition of growth, Fv): > 0.4 mg/L
IC90 (Diplodia maydis (Dm); ≥90% inhibition, 48 hours vs 2% DMSO control, read-out: Compound Concentration (ppm) sufficient for ≥90% inhibition of growth, Dm): > 0.08 mg/L
Wheat Leaf Rust Control at a compound concentration of 10 ppm or lower (Puccinia triticina): AA (≥85% control of wheat leaf rust)
Asian Soybean Rust Control at a compound concentration of 25 ppm or lower (Phakopsora pachyrhizi): B (from 50 to 69% control of Asian soybean rust)
Barley Powdery Mildew Control at a compound concentration of 10 ppm or lower [5]: A (from 70% to 84% control of barley powdery mildew)
IC90 ([6]; ≥90% inhibition, 48 hours vs 2% DMSO control, read-out: Compound Concentration (ppm) sufficient for ≥90% inhibition of growth, Pc): 2 mg/L (≈ 3.4 µM)
Wheat Fusarium Head Blight Control at a compound concentration of 25 ppm or lower (Fusarium graminearum): D (<25% control of wheat fusarium head blight)

COc1ccc(F)cc1[C@H](Cn1c(=O)n(C(C)(C)C(=O)NC(C)C)c(=O)c2c(C)c(-n3cccn3)sc21)OC[C@@H](C)C#N [Compound I-262, 2-(1-((R)-2-((S)-2-cyanopropoxy)-2-(5-fluoro-2-methoxyphenyl)ethyl)-5-methyl-2,4-dioxo-6-(1H-pyrazol-1-yl)-1,4-dihydrothieno[2,3-d]pyrimidin-3 (2H)-yl)-N-isopropyl-2-methylpropanamide]
IC90 (Botrtyis cinerea (Bc); [7]): 0.4 mg/L (≈ 0.655 µM)
Cucumber Powdery Mildew Control at a compound concentration of 10 ppm or lower (Sphaerotheca fuliginea): AA (≥85% control of cucumber powdery mildew)
IC90 (Rhizoctonia solani (Rs); [8]): 0.08 mg/L (≈ 0.131 µM)
IC90 [1, 9]: ≥ 0.08 mg/L
IC90 [2, 10]: 0.08 mg/L (≈ 0.131 µM)
IC90 (Septoria tritici (St); [11]): ≥ 2 mg/L
Septoria Leaf Blotch Control at a compound concentration of 25 ppm or lower [3]: AA (≥85% control of wheat septoria leaf blotch)
IC90 [4, 12]: 0.4 mg/L (≈ 0.655 µM)
IC90 (Diplodia maydis (Dm); [13]): 2 mg/L (≈ 3.27 µM)
Wheat Leaf Rust Control at a compound concentration of 10 ppm or lower (Puccinia triticina): AA (≥85% control of wheat leaf rust)
Asian Soybean Rust Control at a compound concentration of 25 ppm or lower (Phakopsora pachyrhizi): AA (≥85% control of Asian soybean rust)
Barley Powdery Mildew Control at a compound concentration of 10 ppm or lower [5]: A (from 70% to 84% control of barley powdery mildew)
IC90 [6, 14]: ≥ 10 mg/L
Wheat Fusarium Head Blight Control at a compound concentration of 25 ppm or lower (Fusarium graminearum): B (from 50 to 69% control of wheat fusarium head blight)
